According to patent US6579896B2, “Method for treating allergies using substituted pyrazoles” (Ortho-McNeil Pharmaceutical, Inc., priority 2000, dated 2003):

Experiments:
[1] = test system: PBMC from HDM-allergic donors (allergen-specific CD4 T cells); experiment: Ex vivo human T cell-proliferation assay, house dust mite extracts (Der p, Der f); assay type: cell-based; conditions: PBMC of four HDM-allergic donors, Der p or Der f extract, 7 days culture, FIG. 1B
[2] = test system: PBMC from ragweed-allergic donors (allergen-specific CD4 T cells); experiment: Ex vivo human T cell-proliferation assay, ragweed extracts (short and giant); assay type: cell-based; conditions: PBMC of two ragweed-allergic donors, short and giant ragweed extract, 7 days culture, FIG. 2B
[3] = test system: PBMC from allergic donors (T cells, ConA pan-T cell mitogen); experiment: T cell proliferative responses induced by ConA; assay type: cell-based, human; conditions: specificity control
[4] = test system: invariant chain (Ii) degradation by cathepsin S in PBMC; experiment: Monitoring cathepsin S inhibition in human blood: p10Ii fragment accumulation (Western blot); assay type: cell-based; conditions: PBMC from human blood, incubation for 24 h, SDS-PAGE / Western blot

**Q.** For CC(C)C[C@H](NC(=O)N1CCOCC1)C(=O)N[C@H](/C=C/S(=O)(=O)c1ccccc1)CCc1ccccc1 [LHVS, 4-morpholinecarboxamide, N-[(1S)-3-methyl-1-[[[(1S,2E)-1-(2-phenylethyl)-3-(phenylsulfonyl)-2-propenyl]amino]carbonyl]butyl]-], which “T cell proliferation (3H-thymidine incorporation) induced by HDM extracts” value [1] is on record?
**A.** strongly inhibited

**Q.** And the “T cell proliferation (3H-thymidine incorporation) induced by ragweed extracts” value [2]?
**A.** strongly inhibited

**Q.** What about the “T cell proliferative responses induced by ConA” value ([3]; HDM-allergic donors) of the same compound?
**A.** not affected

**Q.** What about the “T cell proliferative responses induced by ConA” value ([3]; ragweed-allergic donors) of the same compound?
**A.** not affected

**Q.** What about the “p10Ii fragment of invariant chain (block in degradation of Ii)” value [4] of the same compound?
**A.** the p10Ii fragment was seen
